In US20220313701A1, “MODULATORS OF TREX1” (Constellation Pharmaceuticals, Inc., priority 2019, published 2022):
pIC50: −log10 of the molar value.

Experiments:
[1] = molecular target: T1, full length human TREX1 (Homo sapiens, UniProt Q9NSU2); assay: TREX1 Biochemical Assay (fluorescence assay, degradation of dsDNA substrate); details: 150 pM TREX1, 60 nM dsDNA substrate, 25 minutes at room temperature
T1 construct: N-terminally His-Tev tagged full length human TREX1; His-Tev (His tag with TEV site) (N); made in house; host or cells: E. coli
T1 sequence (Q9NSU2 1-314): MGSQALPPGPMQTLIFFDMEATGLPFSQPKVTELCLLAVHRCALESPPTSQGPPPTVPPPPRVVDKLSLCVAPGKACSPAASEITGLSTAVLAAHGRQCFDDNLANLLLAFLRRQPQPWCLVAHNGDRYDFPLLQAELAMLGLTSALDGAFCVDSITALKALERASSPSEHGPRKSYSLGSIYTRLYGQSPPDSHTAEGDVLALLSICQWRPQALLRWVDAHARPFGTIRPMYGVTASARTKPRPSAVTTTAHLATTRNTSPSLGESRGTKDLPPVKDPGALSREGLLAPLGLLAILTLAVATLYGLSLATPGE
How it was run: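 N-terminally His-Tev-tagged enzyme expressed in E. coli, 150 pM, with 60 nM dual-labelled dsDNA (TEX615/quencher) in pH 7.4 Tris buffer with MgCl2, 1% DMSO; 10-point dose-response, 25 min at room temperature, then EDTA quench. Fluorescence at 615 nm (excitation 570 nm); IC50 from four-parameter fit against pre-quenched and no-inhibitor controls.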

[2] = molecular target: T2, human TREX2 (residues M44-A279) (Homo sapiens, UniProt Q9BQ50); assay: TREX2 Biochemical Assay (fluorescence assay, degradation of dsDNA substrate); details: 2.5 nM TREX2, 60 nM dsDNA substrate, 25 minutes at room temperature
T2 construct: human TREX2 (residues M44-A279, expressed in E. coli); His-Tev (His tag with TEV site) (N); made in house; host or cells: E. coli
T2 sequence (Q9BQ50 44-279 isoform Q9BQ50-1): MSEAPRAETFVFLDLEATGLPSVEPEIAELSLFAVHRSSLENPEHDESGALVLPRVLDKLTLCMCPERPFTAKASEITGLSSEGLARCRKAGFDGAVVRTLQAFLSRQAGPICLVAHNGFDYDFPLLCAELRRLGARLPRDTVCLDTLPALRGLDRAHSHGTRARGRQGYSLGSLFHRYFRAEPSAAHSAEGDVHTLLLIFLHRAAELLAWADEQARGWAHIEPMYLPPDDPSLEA
How it was run: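 Final conditions: 2.5 nM His-Tev-tagged TREX2 (E. coli-expressed), 60 nM fluorophore/quencher-labelled dsDNA, 50 mM Tris pH 7.4, 150 mM NaCl, 100 mM MgCl2, 1% DMSO; 10-point compound dose-response. Incubated 25 min at room temperature, then EDTA-quenched; fluorescence read at ex 570/em 615 nm. IC50 from four-parameter fit against pre-quenched and no-inhibitor controls.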

Structure (SMILES)	pIC50 [1]	pIC50 [2]
Cc1cnn(-c2cncc(N3CCC(O)(c4ccc(F)cc4)CC3)n2)c1 [Example 72, 4-(4-fluorophenyl)-1-(6-(4-methyl-1H-pyrazol-1-yl)pyrazin-2-yl)piperidin-4-ol]	5.00 to 6.00	< 4.00
OC1(c2ccccc2)CCN(c2cncc(-n3cccn3)n2)CC1 [Example 73, 1-(6-(1H-pyrazol-1-yl)pyrazin-2-yl)-4-phenylpiperidin-4-ol]	< 5.00	< 4.00
OC1(c2ccccn2)CCN(c2cncc(-n3cccn3)n2)CC1 [Example 74, 1-(6-(1H-pyrazol-1-yl)pyrazin-2-yl)-4-(pyridin-2-yl)piperidin-4-ol]	< 5.00	< 4.00
OC1(c2cccnc2)CCN(c2cncc(-n3cccn3)n2)CC1 [Example 75, 1-(6-(1H-pyrazol-1-yl)pyrazin-2-yl)-4-(pyridin-3-yl)piperidin-4-ol]	< 5.00	< 4.00
OC1(c2ccc(F)cc2)CCN(c2cncc(N3CCCC3)n2)CC1 [Example 78, 4-(4-fluorophenyl)-1-(6-(pyrrolidin-1-yl)pyrazin-2-yl)piperidin-4-ol]	< 5.00	< 4.00
OC1(c2ccc(F)cc2)CCN(c2nccc(-n3cccn3)n2)CC1 [Example 80, 1-(4-(1H-pyrazol-1-yl)pyrimidin-2-yl)-4-(4-fluorophenyl)piperidin-4-ol]	5.00 to 6.00	< 4.00
OC1(c2ccc(F)cc2)CCN(c2ccc3nccn3n2)CC1 [Example 81, 4-(4-fluorophenyl)-1-(imidazo[1,2-b]pyridazin-6-yl)piperidin-4-ol]	5.00 to 6.00	< 4.00
OC1(c2ccc(F)cc2)CCN(c2ccc3ccccc3n2)CC1 [Example 83, 4-(4-fluorophenyl)-1-(quinolin-2-yl)piperidin-4-ol]	< 5.00	< 4.00
OC1(c2ccc(F)cc2)CCN(c2cncc(Cl)n2)CC1 [Example 84, 1-(6-chloropyrazin-2-yl)-4-(4-fluorophenyl)piperidin-4-ol]	5.00 to 6.00	< 4.00
COc1cc(N2CCC(O)(c3ccc(F)cc3)CC2)ncn1 [Example 85, 4-(4-fluorophenyl)-1-(6-methoxypyrimidin-4-yl)piperidin-4-ol]	5.00 to 6.00	< 4.00
OC1(c2ccc(F)cc2)CCN(c2ccccn2)CC1 [Example 86, 4-(4-fluorophenyl)-1-(pyridin-2-yl)piperidin-4-ol]	< 5.00	< 4.00
Cc1nn(C)cc1-c1cnnc(N2CCC(O)(c3ccc(F)c(F)c3)CC2)c1 [Example 88, 4-(3,4-difluorophenyl)-1-(5-(1,3-dimethyl-1H-pyrazol-4-yl)pyridazin-3-yl)piperidin-4-ol]	6.00 to 7.00	< 4.00
Cc1ncc(N2CCC(O)(c3ccc(F)c(F)c3)CC2)nc1-c1cnn(C)c1 [Example 90, 4-(3,4-difluorophenyl)-1-(5-methyl-6-(1-methyl-1H-pyrazol-4-yl)pyrazin-2-yl)piperidin-4-ol]	6.00 to 7.00	< 4.00
Cc1nc(-c2cn(C)nc2C)c(F)c(N2CCC(O)(c3ccc(F)c(F)c3)CC2)n1 [Example 91, 4-(3,4-difluorophenyl)-1-(6-(1,3-dimethyl-1H-pyrazol-4-yl)-5-fluoro-2-methylpyrimidin-4-yl)piperidin-4-ol]	6.00 to 7.00	< 4.00
Cc1nn(C)cc1-c1cc(C(N)=O)cc(N2CCC(O)(c3cc(F)c(F)c(F)c3)CC2)n1 [Example 93, 2-(1,3-dimethyl-1H-pyrazol-4-yl)-6-(4-hydroxy-4-(3,4,5-trifluorophenyl)piperidin-1-yl)isonicotinamide]	6.00 to 7.00	< 4.00
Cc1nn(C)cc1-c1nnc(N2CCC(O)(c3ccc(F)c(F)c3)CC2)s1 [Example 95, 4-(3,4-difluorophenyl)-1-(5-(1,3-dimethyl-1H-pyrazol-4-yl)-1,3,4-thiadiazol-2-yl)piperidin-4-ol]	5.00 to 6.00	< 4.00
Cc1nn(C)cc1-c1nsc(N2CCC(O)(c3ccc(F)c(F)c3)CC2)n1 [Example 96, 4-(3,4-difluorophenyl)-1-(3-(1,3-dimethyl-1H-pyrazol-4-yl)-1,2,4-thiadiazol-5-yl)piperidin-4-ol]	6.00 to 7.00	< 4.00
Cc1nn(C)cc1-c1nc(N2CCC(O)(c3ccc(F)c(F)c3)CC2)sc1C(N)=O [Example 98, 2-(4-(3,4-difluorophenyl)-4-hydroxypiperidin-1-yl)-4-(1,3-dimethyl-1H-pyrazol-4-yl)thiazole-5-carboxamide]	6.00 to 7.00	< 4.00

Further lines, results first:

pIC50 [1]	pIC50 [2]	Structure (SMILES)
5.00 to 6.00	< 4.00	O=C(NCC(O)c1ccccc1)c1cncc(N2CCC(O)(c3ccc(F)cc3)CC2)n1 (centres unmarked) [Example 71, 6-(4-(4-fluorophenyl)-4-hydroxypiperidin-1-yl)-N-(2-hydroxy-2-phenylethyl)pyrazine-2-carboxamide]
< 5.00	< 4.00	OC1(c2ccncc2)CCN(c2cncc(-n3cccn3)n2)CC1 [Example 76, 1-(6-(1H-pyrazol-1-yl)pyrazin-2-yl)-4-(pyridin-4-yl)piperidin-4-ol]
5.00 to 6.00	< 4.00	OC1(c2ccc(F)cc2)CCN(c2cccc(-n3cccn3)n2)CC1 [Example 79, 1-(6-(1H-pyrazol-1-yl)pyridin-2-yl)-4-(4-fluorophenyl)piperidin-4-ol]
5.00 to 6.00	< 4.00	OC1(c2ccc(F)cc2)CCN(c2cnc3ccccc3n2)CC1 [Example 82, 4-(4-fluorophenyl)-1-(quinoxalin-2-yl)piperidin-4-ol]
5.00 to 6.00	< 4.00	Cc1nn(C)cc1-c1cc(N2CCC(O)(c3ccc(F)c(F)c3)CC2)cnn1 [Example 87, 4-(3,4-difluorophenyl)-1-(6-(1,3-dimethyl-1H-pyrazol-4-yl)pyridazin-4-yl)piperidin-4-ol]
5.00 to 6.00	< 4.00	Cc1ncc(-c2cnn(C)c2)nc1N1CCC(O)(c2ccc(F)c(F)c2)CC1 [Example 89, 4-(3,4-difluorophenyl)-1-(3-methyl-6-(1-methyl-1H-pyrazol-4-yl)pyrazin-2-yl)piperidin-4-ol]
6.00 to 7.00	< 4.00	Cc1cc(C2(O)CCN(c3cncc(-c4cn(C)nc4C)n3)CC2)ccc1F [Example 92, 1-(6-(1,3-dimethyl-1H-pyrazol-4-yl)pyrazin-2-yl)-4-(4-fluoro-3-methylphenyl)piperidin-4-ol]
6.00 to 7.00	< 4.00	Cc1nn(C)cc1-c1cc(C(N)=O)cc(N2CCC(O)(c3ccc(F)c(Cl)c3)CC2)n1 [Example 94, 2-(4-(3-chloro-4-fluorophenyl)-4-hydroxypiperidin-1-yl)-6-(1,3-dimethyl-1H-pyrazol-4-yl)isonicotinamide]
5.00 to 6.00	< 4.00	Cc1nn(C)cc1-c1csc(N2CCC(O)(c3ccc(F)c(F)c3)CC2)n1 [Example 97, 4-(3,4-difluorophenyl)-1-(4-(1,3-dimethyl-1H-pyrazol-4-yl)thiazol-2-yl)piperidin-4-ol]
6.00 to 7.00	< 4.00	Cc1nn(C)cc1-c1c[nH]c(=O)c(N2CCC(O)(c3ccc(F)c(F)c3)CC2)n1 [Example 99, 3-(4-(3,4-difluorophenyl)-4-hydroxypiperidin-1-yl)-5-(1,3-dimethyl-1H-pyrazol-4-yl)pyrazin-2(1H)-one]
